{"source": "ChEMBL document CHEMBL5113500", "about": "“New brefeldin A-cinnamic acid ester derivatives as potential antitumor agents: Design, synthesis and biological evaluation” (Eur J Med Chem, 2022)", "key": {"Bel-7402 [1]": {"tested_on": "Bel-7402", "assay": "Cell cycle arrest in human Bel-7402 cells assessed as accumulation at S phase at 1 uM measured after 24 hrs by propidium iodide staining based flow cytometry (reference value: 31%)", "format": "functional"}, "HepG2 [2]": {"tested_on": "HepG2", "assay": "Cell cycle arrest in human HepG2 cells assessed as accumulation at G2/M phase at 0.4 uM measured after 24 hrs by propidium iodide staining based flow cytometry (reference value: 19.93%)", "format": "functional"}, "HepG2 [3]": {"tested_on": "HepG2", "assay": "Cell cycle arrest in human HepG2 cells assessed as accumulation at S phase at 0.4 uM measured after 24 hrs by propidium iodide staining based flow cytometry (reference value: 32.81%)", "format": "functional"}, "HepG2 [4]": {"tested_on": "HepG2", "assay": "Cell cycle arrest in human HepG2 cells assessed as accumulation at G1 phase at 0.4 uM measured after 24 hrs by propidium iodide staining based flow cytometry (reference value: 42.27%)", "format": "functional"}, "HepG2 [5]": {"tested_on": "HepG2", "assay": "Induction of apoptosis in human HepG2 cells assessed as necrotic cells at 0.2 uM measured after 48 hrs by Annexin V-FITC/propidium iodide staining based flow cytometry (reference value: 2.04%)", "format": "functional"}, "HepG2 [6]": {"tested_on": "HepG2", "assay": "Induction of apoptosis in human HepG2 cells assessed as late apoptotic cells at 0.2 uM measured after 48 hrs by Annexin V-FITC/propidium iodide staining based flow cytometry (reference value: 1.66%)", "format": "functional"}, "HepG2 [7]": {"tested_on": "HepG2", "assay": "Induction of apoptosis in human HepG2 cells assessed as early apoptotic cells at 0.2 uM measured after 48 hrs by Annexin V-FITC/propidium iodide staining based flow cytometry (reference value: 1.81%)", "format": "functional"}, "HepG2 [8]": {"tested_on": "HepG2", "assay": "Induction of apoptosis in human HepG2 cells assessed as viable cells at 0.2 uM measured after 48 hrs by Annexin V-FITC/propidium iodide staining based flow cytometry (reference value: 94.5%)", "format": "functional", "conditions": "read-out: Activity"}, "HepG2 [9]": {"tested_on": "HepG2", "assay": "Induction of apoptosis in human HepG2 cells measured after 48 hrs by Annexin V-FITC/propidium iodide staining based flow cytometry", "format": "functional, cell-based", "conditions": "dose 0.2-0.8 µM, DDE = dose-dependent effect"}, "HepG2 [10]": {"tested_on": "HepG2", "assay": "Induction of apoptosis in human HepG2 cells assessed as chromatin shrinkage at 0.2 to 0.8 uM measured after 48 hrs by Hoechst 33342 staining based fluorescence microscopy", "format": "functional, cell-based", "conditions": "dose 0.2-0.8 µM"}, "Bel-7402 [11]": {"tested_on": "Bel-7402", "assay": "Antiproliferative activity against human Bel-7402 cells measured after 72 hrs by MTT assay", "format": "functional, cell-based", "conditions": "Bel-7402, 72 h"}, "ECa-109 cell line": {"tested_on": "ECa-109 cell line", "assay": "Antiproliferative activity against human Eca-109 cells measured after 72 hrs by MTT assay", "format": "functional, cell-based", "conditions": "ECa-109, 72 h"}, "PANC-1": {"tested_on": "PANC-1", "assay": "Antiproliferative activity against human PANC-1 cells measured after 72 hrs by MTT assay", "format": "functional, cell-based", "conditions": "PANC-1, 72 h"}, "[12]": {"assay": "Cytotoxicity against human L02 cells measured after 72 hrs by MTT assay", "format": "toxicity, cell-based"}, "[13]": {"assay": "Selectivity index, ratio of IC50 for human L02 cells to IC50 for human HepG2 cells", "format": "toxicity", "conditions": "L02 cells and HepG2 cells, read-out: Ratio IC50"}, "[14]": {"assay": "Solubility of the compound in 5% DMSO and 10% Solutol HS-15 saline solution", "format": "physicochemical"}, "HepG2 [15]": {"tested_on": "HepG2", "assay": "Inhibition of colony formation in human HepG2 cells at 0.4 to 0.8 uM treated every 3 days for 14 days by crystal violet staining based assay", "format": "functional, cell-based", "conditions": "dose 0.4-0.8 µM, time 14.0 day"}, "Bel-7402 [16]": {"tested_on": "Bel-7402", "assay": "Inhibition of colony formation in human Bel-7402 cells at 2 uM treated every 3 days for 14 days by crystal violet staining based assay", "format": "functional, cell-based", "conditions": "time 14.0 day"}, "HepG2 [17]": {"tested_on": "HepG2", "assay": "Cell cycle arrest in human HepG2 cells assessed as accumulation at S phase at 0.2 uM measured after 24 hrs by propidium iodide staining based flow cytometry (reference value: 32.81%)", "format": "functional"}, "Bel-7402 [18]": {"tested_on": "Bel-7402", "assay": "Cell cycle arrest in human Bel-7402 cells assessed as accumulation at G1 phase at 0.5 uM measured after 24 hrs by propidium iodide staining based flow cytometry (reference value: 38.72%)", "format": "functional"}, "Bel-7402 [19]": {"tested_on": "Bel-7402", "assay": "Cell cycle arrest in human Bel-7402 cells assessed as accumulation at S phase at 0.5 uM measured after 24 hrs by propidium iodide staining based flow cytometry (reference value: 31%)", "format": "functional"}, "HepG2 [20]": {"tested_on": "HepG2", "assay": "Cell cycle arrest in human HepG2 cells assessed as accumulation at G1 phase at 0.8 uM measured after 24 hrs by propidium iodide staining based flow cytometry (reference value: 42.27%)", "format": "functional"}, "HepG2 [21]": {"tested_on": "HepG2", "assay": "Cell cycle arrest in human HepG2 cells assessed as accumulation at S phase at 0.8 uM measured after 24 hrs by propidium iodide staining based flow cytometry (reference value: 32.81%)", "format": "functional"}, "Bel-7402 [22]": {"tested_on": "Bel-7402", "assay": "Cell cycle arrest in human Bel-7402 cells assessed as accumulation at S phase at 2 uM measured after 24 hrs by propidium iodide staining based flow cytometry (reference value: 31%)", "format": "functional"}, "HepG2 [23]": {"tested_on": "HepG2", "assay": "Induction of apoptosis in human HepG2 cells assessed as necrotic cells at 0.4 uM measured after 48 hrs by Annexin V-FITC/propidium iodide staining based flow cytometry (reference value: 2.04%)", "format": "functional"}, "HepG2 [24]": {"tested_on": "HepG2", "assay": "Induction of apoptosis in human HepG2 cells assessed as necrotic cells at 0.8 uM measured after 48 hrs by Annexin V-FITC/propidium iodide staining based flow cytometry (reference value: 2.04%)", "format": "functional"}, "HepG2 [25]": {"tested_on": "HepG2", "assay": "Induction of apoptosis in human HepG2 cells assessed as increase in cleaved PARP expression at 0.2 to 0.8 uM measured after 48 hrs by Western blot analysis", "format": "functional, cell-based", "conditions": "dose 0.2-0.8 µM"}, "[26]": {"assay": "Acute toxicity in ICR mouse assessed as body weight loss at 809 mg/kg, po measured for 6 days", "format": "organism-based", "conditions": "in vivo, 144 h, time 6 day"}, "[27]": {"assay": "Acute toxicity in ICR mouse assessed as change in ALP level at 100 mg/kg, ip measured after 6 days", "format": "organism-based", "conditions": "in vivo, 144 h, time 6 day"}, "[28]": {"assay": "Acute toxicity in ICR mouse assessed as change in creatinine level at 100 mg/kg, ip measured after 6 days", "format": "organism-based", "conditions": "in vivo, 144 h, time 6 day"}, "[29]": {"assay": "Acute toxicity in ICR mouse assessed as change in uric acid level at 100 mg/kg, ip measured after 6 days", "format": "organism-based", "conditions": "in vivo, 144 h, time 6 day"}, "[30]": {"assay": "Acute toxicity in ICR mouse assessed as change in creatine kinase level at 100 mg/kg, ip measured after 6 days", "format": "organism-based", "conditions": "in vivo, 144 h, time 6 day"}, "[31]": {"assay": "Acute toxicity in ICR mouse assessed as pathological change in kidney at 100 mg/kg, ip measured after 6 days", "format": "organism-based", "conditions": "in vivo, 144 h, time 6 day"}, "[32]": {"assay": "AUC (0 to t) in ICR mouse at 10 mg/kg, iv", "format": "ADME, organism-based", "set-up": "dose 10 mg/kg, route iv", "conditions": "in vivo"}, "[33]": {"assay": "Volume of distribution at steady state in ICR mouse at 10 mg/kg, iv", "format": "ADME, organism-based", "conditions": "in vivo, read-out: Vdss"}, "HepG2 [34]": {"tested_on": "HepG2", "assay": "Antitumor activity against human HepG2 cells xenografted in BALB/c nude mouse assessed as tumor growth inhibition at 10 mg/kg, ip administered once daily for 16 days relative to control", "format": "functional", "conditions": "HepG2, 384 h, time 16 day, read-out: TGI"}, "HepG2 [35]": {"tested_on": "HepG2", "assay": "Antitumor activity against human HepG2 cells xenografted in BALB/c nude mouse assessed as tumor growth inhibition at 5 mg/kg, ip administered once daily for 16 days relative to control", "format": "functional", "conditions": "HepG2, 384 h, time 16 day, read-out: TGI"}, "HepG2 [36]": {"tested_on": "HepG2", "assay": "Antitumor activity against human HepG2 cells xenografted in BALB/c nude mouse assessed as increase in cleaved caspase-3 expression at 5 to 10 mg/kg, ip administered once daily for 16 days measured post-last dose by immunohistochemical analysis", "format": "functional, organism-based", "conditions": "dose 5-10 mg/kg, time 16.0 day"}}, "note": "pIC50: −log10 of the molar value. Activity calls are given as the source filed them. The calls are words filed in the database; no cut-off is given here."}
{"smiles": "C[C@H]1CCC/C=C/[C@@H]2C[C@H](O)C[C@H]2[C@H](OC(=O)/C=C/c2ccc(N(C)C)cc2)/C=C/C(=O)O1", "values": [{"measurement": "Activity", "setting": "Bel-7402 [1]", "value": 19.59, "unit": "%"}, {"measurement": "Activity", "setting": "HepG2 [2]", "value": 20.88, "unit": "%"}, {"measurement": "Activity", "setting": "HepG2 [3]", "value": 21.37, "unit": "%"}, {"measurement": "Activity", "setting": "HepG2 [4]", "value": 57.76, "unit": "%"}, {"measurement": "Activity", "setting": "HepG2 [5]", "value": 28.85, "unit": "%"}, {"measurement": "Activity", "setting": "HepG2 [6]", "value": 3.05, "unit": "%"}, {"measurement": "Activity", "setting": "HepG2 [7]", "value": 2.03, "unit": "%"}, {"measurement": "viability at 0.2 µM", "setting": "HepG2 [8]", "value": 66.1, "unit": "%"}, {"measurement": "Activity", "setting": "HepG2 [9]", "value": "Dde"}, {"measurement": "Activity", "setting": "HepG2 [10]", "value": "Active"}, {"measurement": "pIC50", "setting": "Bel-7402 [11]", "value": 6.08}, {"measurement": "pIC50", "setting": "ECa-109 cell line", "value": 5.75}, {"measurement": "pIC50", "setting": "PANC-1", "value": 6.19}, {"measurement": "IC50 at 72 h", "setting": "[12]", "value": 2810, "unit": "nM"}, {"measurement": "selectivity ratio", "setting": "[13]", "value": 9.69}, {"measurement": "solubility", "setting": "[14]", "value": 2500, "unit": "µg/mL"}, {"measurement": "inhibition", "setting": "HepG2 [15]", "value": "Active"}, {"measurement": "inhibition", "setting": "Bel-7402 [16]", "value": "Active"}, {"measurement": "Activity", "setting": "HepG2 [17]", "value": 29.24, "unit": "%"}, {"measurement": "Activity", "setting": "Bel-7402 [18]", "value": 51.26, "unit": "%"}, {"measurement": "Activity", "setting": "Bel-7402 [19]", "value": 21.14, "unit": "%"}, {"measurement": "Activity", "setting": "HepG2 [20]", "value": 60.9, "unit": "%"}, {"measurement": "Activity", "setting": "HepG2 [21]", "value": 23.25, "unit": "%"}, {"measurement": "Activity", "setting": "Bel-7402 [22]", "value": 20.69, "unit": "%"}, {"measurement": "Activity", "setting": "HepG2 [23]", "value": 41.57, "unit": "%"}, {"measurement": "Activity", "setting": "HepG2 [24]", "value": 39.85, "unit": "%"}, {"measurement": "Activity", "setting": "HepG2 [25]", "value": "Active"}, {"measurement": "Activity", "setting": "[26]", "value": "Toxic"}, {"measurement": "Activity", "setting": "[27]", "value": "Non-Toxic"}, {"measurement": "Activity", "setting": "[28]", "value": "Non-Toxic"}, {"measurement": "Activity", "setting": "[29]", "value": "Non-Toxic"}, {"measurement": "Activity", "setting": "[30]", "value": "Non-Toxic"}, {"measurement": "Activity", "setting": "[31]", "value": "Non-Toxic"}, {"measurement": "AUC(0-t)", "setting": "[32]", "value": 4010, "unit": "ng·h/mL"}, {"measurement": "Vd", "setting": "[33]", "value": 0.852, "unit": "L/kg"}, {"measurement": "inhibition in vivo at 10 mg/kg", "setting": "HepG2 [34]", "value": 46.2, "unit": "%"}, {"measurement": "inhibition in vivo at 5 mg/kg", "setting": "HepG2 [35]", "value": 34.3, "unit": "%"}, {"measurement": "Activity", "setting": "HepG2 [36]", "value": "Active"}]}
